Tests used:
[1] = biological target: METTL3/14 (Homo sapiens (Human), UniProt Q86U44); assay: METTL3/14 methyltransferase assay (RapidFire mass spectrometry, RFMS); assay type: biochemical; details: 5 nM METTL3/14, 0.2 μM RNA substrate, 0.5 μM SAM, 60 minutes at room temperature
Description: The enzymatic assay was established to determine IC50 values for inhibition of RNA methyltransferase activity. The enzyme used was full-length his-tagged METTL3 co-expressed with full length FLAG-tagged METTL14 in a baculovirus expression system. Enzymatic reactions were performed at room temperature in 384-well plates using a final reaction volume of 20 μL containing 20 mM TrisCl pH 7.6, 1 mM DTT, 0.01% Tween-20. 5 nM final concentration of METTL3/14 was pre-incubated with various compound concentrations for 10 minutes, followed by addition of 0.2 μM final concentration synthetic RNA substrate (5′P-[…]-3′) and 0.5 μM final concentration S-adenosyl-methionine (SAM). The reaction was incubated for a further 60 minutes at room temperature, and then quenched by the addition of 40 μL 7.5% TCA with two internal product standards (D4-SAH and 13C10-SAH). After termination, plates were sealed, centrifuged and stored at 4° C. until analysis.
RNA methyltransferase activity was measured label free using the RapidFire™ mass spectrometry (RF/MS) platform. Stopped and stable assay plates were analyzed on the Agilent RF300 integrated autosampler/solid-phase extraction (SPE) system coupled to an ABSciex 4000 mass spectrometer for the generation of the product S-adenosyl homocysteine (SAH) and normalized to the ratio of signal of the two internal product standards, respectively. Solvent A was water containing 0.1% (v/v) TCA. Solvent B was acetonitrile/0.1% ammonium acetate (8:2, v/v). More specifically, plates were centrifuged at 4350 rpm for 10 min, samples were aspirated under vacuum for 600 ms, then loaded onto a C18 solid-phase extraction cartridge and washed for 3 s with solvent A at a flow rate of 1.5 mL/min. Retained product and internal standards were eluted with solvent B at a flow rate of 1 mL/min for 3 s and finally the cartridge was re-equilibrated with solvent A for 500 ms. The mass transition for the product (SAH) was 384.9/135.9 Da. Transitions of the two internal product standards (IS1: D4-SAH and IS2: 13C10-SAH) were 389.1/135.8 Da and 395.0/134.2 Da, respectively. Ratios of SAH/IS1 and SAH/IS2 were used for normalization of matrix effects. IC50 values were calculated based on dilution series of individual compounds. Potency of a compound was measured at varied inhibitor concentrations and normalized to control wells without RNA substrate and without inhibition (DMSO only).

[2] = system: Caov-3 cells; assay: Caov3 cell proliferation CTG; assay type: cell-based; details: Homo sapiens, treated for 120 hours, CellTiter-Glo
Description: Cell treatment and cell growth assessment: 18 hours post-seeding in white 384-Viewplate (6007480, PerkinElmer) at 1500 cells/well, Caov3 cells were treated for 120 hours with compounds inhibiting the METTL3/14 activity (10 serial semi-log dilutions, 30 μM as top concentration). Upon treatment, Coav-3 cells were incubated for 10 min at RT with the CellTiter-Glo reagent (G7571, Promega). Measurement of the luminescence signal was performed on a microplate reader (Ensight, PerkinElmer).

[3] = system: KASUMI-1 cells; assay: Kasumi cell proliferation CTG; assay type: cell-based; details: treated for 120 hours, CellTiter-Glo
Description: Cell culture: KASUMI-1 cells (ACC20, Leibniz-Institut DSMZ Deutsche Sammlung von Mikroorganismen und Zellkulturen GmbH) were grown in RPMI 1640 (31870-025, Gibco) supplemented with 20% fetal bovine serum (F1524, Gibco), 1 mM sodium pyruvate (11360-039, Gibco) and 2 mM Glutamax (35050-038, Gibco) in a 5% CO2 humidified incubator at 37° C.
Cell treatment and cell growth assessment: KASUMI-1 cells were seeded in ultra-low attachment 384-well culture plate (MS-9384WZ, SBio) at a final concentration of 250 000 cells/ml (35 μL/well) and treated for 120 hours with compounds inhibiting the METTL3/14 activity (10 serial semi-log dilutions, 30 μM as top concentration). Upon treatment, Kasumi1 cells were incubated for 10 min at RT with the CellTiter-Glo reagent (G7571, Promega). Measurement of the luminescence signal was performed on a microplate reader (Ensight, PerkinElmer).

Sequence of METTL3/14 (Q86U44 whole entry): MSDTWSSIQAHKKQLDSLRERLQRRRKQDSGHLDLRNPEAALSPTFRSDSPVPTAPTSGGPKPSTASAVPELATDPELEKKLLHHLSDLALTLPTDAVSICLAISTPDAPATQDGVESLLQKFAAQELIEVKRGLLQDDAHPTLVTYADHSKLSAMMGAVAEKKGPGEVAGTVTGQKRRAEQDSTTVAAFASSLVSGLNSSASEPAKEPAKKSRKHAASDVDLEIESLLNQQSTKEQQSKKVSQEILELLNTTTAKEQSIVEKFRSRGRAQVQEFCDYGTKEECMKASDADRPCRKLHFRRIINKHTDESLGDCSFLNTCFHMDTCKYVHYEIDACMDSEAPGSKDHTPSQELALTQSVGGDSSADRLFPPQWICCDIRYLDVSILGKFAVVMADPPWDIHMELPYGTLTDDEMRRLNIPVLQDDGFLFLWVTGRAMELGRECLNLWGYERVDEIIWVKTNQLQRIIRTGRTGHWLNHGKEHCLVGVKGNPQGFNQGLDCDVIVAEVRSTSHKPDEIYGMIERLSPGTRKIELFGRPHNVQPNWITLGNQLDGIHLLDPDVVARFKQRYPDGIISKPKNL
Sequence of METTL3/14 (Q9HCE5 whole entry partner): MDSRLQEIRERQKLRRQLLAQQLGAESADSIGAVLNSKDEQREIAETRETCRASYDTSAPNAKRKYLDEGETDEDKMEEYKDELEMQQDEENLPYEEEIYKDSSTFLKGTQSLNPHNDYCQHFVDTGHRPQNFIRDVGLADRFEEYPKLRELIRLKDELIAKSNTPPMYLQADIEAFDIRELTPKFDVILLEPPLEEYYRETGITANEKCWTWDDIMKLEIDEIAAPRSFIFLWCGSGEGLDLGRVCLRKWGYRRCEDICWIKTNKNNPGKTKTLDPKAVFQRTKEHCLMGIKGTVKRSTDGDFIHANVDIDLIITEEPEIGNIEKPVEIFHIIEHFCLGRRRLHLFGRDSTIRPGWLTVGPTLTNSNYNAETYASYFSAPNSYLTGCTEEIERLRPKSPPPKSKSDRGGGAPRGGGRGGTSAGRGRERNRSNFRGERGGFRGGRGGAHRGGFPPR

SMILES | IC50 [1] [nM] | IC50 [2] [nM] | IC50 ([3]; Homo sapiens, Kasumi 1, 120 h) [nM] | IC50 [3] [nM]
Nc1ncnc2c1c(Br)cn2[C@@H]1O[C@H](/C=C/CCCNCC2CCC2)[C@@H](O)[C@H]1O [Example 2, (2R,3R,4S,5R)-2-{4-amino-5-bromo-7H-pyrrolo[2,3-d]pyrimidin-7-yl}-5-[(1E)-5-[(cyclobutylmethyl)amino]pent-1-en-1-yl]oxolane-3,4-diol] | 42.6 | 3800 | 7300 | –
Nc1ncnc2c1c(Br)cn2[C@@H]1O[C@H](/C=C/CCCNCc2ccccc2)[C@@H](O)[C@H]1O [Example 5, (2R,3R,4S,5R)-2-{4-amino-5-bromo-7H-pyrrolo[2,3-d]pyrimidin-7-yl}-5-[(1E)-5-(benzylamino)pent-1-en-1-yl]oxolane-3,4-diol] | 196 | 330 | – | 360
Nc1ncnc2c1c(Br)cn2[C@@H]1O[C@H](/C=C/CCCNCC23CC(F)(C2)C3)[C@@H](O)[C@H]1O [Example 6] | – | 400 | 1600 | –
Nc1ncnc2c1c(Br)cn2[C@@H]1O[C@H](CC/C=C/CNCc2ccccc2)[C@@H](O)[C@H]1O [Example 9, (2R,3R,4S,5R)-2-(4-amino-5-bromo-7H-pyrrolo[2,3-d]pyrimidin-7-yl)-5-((E)-5-(benzylamino)pent-3-en-1-yl)tetrahydrofuran-3,4-diol] | 123 | 5700 | 4600 | –
Nc1ncnc2c1c(Br)cn2[C@@H]1C[C@H](c2ccc(CNCC3CCC3)cc2)[C@@H](O)[C@H]1O [Example 10, (1R,2S,3R,5R)-3-(4-amino-5-bromo-7H-pyrrolo[2,3-d]pyrimidin-7-yl)-5-(4-(((cyclobutylmethyl)amino)methyl)phenyl)cyclopentane-1,2-diol] | 150 | 6500 | 4400 | –
Nc1ncnc2c1c(Br)cn2[C@@H]1C[C@H](c2ccc3cc(CNCC45CC(F)(C4)C5)[nH]c3c2)[C@@H](O)[C@H]1O [Example 11, (1R,2S,3R,5R)-3-{4-amino-5-bromo-7H-pyrrolo[2,3-d]pyrimidin-7-yl}-5-(2-{[({3-fluorobicyclo[1.1.1]pentan-1-yl}methyl)amino]methyl}-1H-indol-6-yl)cyclopentane-1,2-diol] | – | 250 | 950 | –
Nc1ncnc2c1c(Br)cn2[C@@H]1C[C@H](c2ccc(CCNCC34CC(F)(C3)C4)cc2)[C@@H](O)[C@H]1O [Example 12, (1R,2S,3R,5R)-3-{4-amino-5-bromo-7H-pyrrolo[2,3-d]pyrimidin-7-yl}-5-(4-{2-[({3-fluorobicyclo[1.1.1]pentan-1-yl}methyl)amino]ethyl}phenyl)cyclopentane-1,2-diol] | 46.6 | 8300 | 4900 | –
Nc1ncnc2c1c(-c1cc[nH]n1)cn2[C@@H]1O[C@H](/C=C/CCCNCC23CC(F)(C2)C3)[C@@H](O)[C@H]1O [Example 20, (2R,3R,4S,5R)-2-[4-amino-5-(1H-pyrazol-3-yl)-7H-pyrrolo[2,3-d]pyrimidin-7-yl]-5-[(1E)-5-[({3-fluorobicyclo[1.1.1]pentan-1-yl}methyl)amino]pent-1-en-1-yl]oxolane-3,4-diol] | 6.1 | 1690 | – | –
Nc1ncnc2c1c(Br)cn2[C@@H]1O[C@H](/C=C/CCCN2CCC3(CCC3)C2)[C@@H](O)[C@H]1O [Example 21] | 23.9 | 4570 | 4850 | –
Nc1ncnc2c1c(Br)cn2[C@H]1C[C@H](O)[C@@H](/C=C/CCCNCC23CC(F)(C2)C3)O1 [Example 22, (2R,3S,5R)-5-(4-amino-5-bromo-pyrrolo[2,3-d]pyrimidin-7-yl)-2-[(E)-5-[(3-fluoro-1-bicyclo[1.1.1]pentanyl)methylamino]pent-1-enyl]tetrahydrofuran-3-ol] | 12.8 | 2880 | 4280 | –
Nc1ncnc2c1c(Br)cn2[C@@H]1C[C@H](c2ccc(CNCC34CC(F)(C3)C4)cc2)[C@@H](O)[C@H]1O [Example 34, (1R,2S,3R,5R)-3-{4-amino-5-bromo-7H-pyrrolo[2,3-d]pyrimidin-7-yl}-5-(4-{[({3-fluorobicyclo[1.1.1]pentan-1-yl}methyl)amino]methyl}phenyl)cyclopentane-1,2-diol] | 9.11 | 1880 | 2390 | –

More lines, main results first:

IC50 [1] [nM] | SMILES | IC50 [2] [nM] | IC50 ([3]; Homo sapiens, Kasumi 1, 120 h) [nM] | IC50 [3] [nM]
6.1 | Nc1ncnc2c1c(F)cn2[C@@H]1C[C@H](c2ccc3cc(CNCC45CC(F)(C4)C5)[nH]c3c2)[C@@H](O)[C@H]1O [Example 29, (1R,2S,3R,5R)-3-{4-amino-5-fluoro-7H-pyrrolo[2,3-d]pyrimidin-7-yl}-5-(2-{[{{3-fluorobicyclo[1.1.1]pentan-1-yl}methyl)amino]methyl}-1H-indol-6-yl)cyclopentane-1,2-diol] | 1540 | 2850 | –
6.1 | Nc1ncnc2c1c(Cl)cn2[C@@H]1C[C@H](c2ccc3cc(CNCC45CC(F)(C4)C5)[nH]c3c2)[C@@H](O)[C@H]1O [Example 30, (1R,2S,3R,5R)-3-{4-amino-5-chloro-7H-pyrrolo[2,3-d]pyrimidin-7-yl}-5-(2-{[({3-fluorobicyclo[1.1.1]pentan-1-yl}methyl)amino]methyl}-1H-indol-6-yl)cyclopentane-1,2-diol] | 556 | 1290 | –
8.24 | Nc1ncnc2c1c(Br)cn2[C@@H]1C[C@H](c2ccc3[nH]c(CNCC45CC(F)(C4)C5)cc3c2)[C@@H](O)[C@H]1O [Example 31, (1R,2S,3R,5R)-3-{4-amino-5-bromo-7H-pyrrolo[2,3-d]pyrimidin-7-yl}-5-(2-{[{{3-fluorobicyclo[1.1.1]pentan-1-yl}methyl)amino]methyl}-1H-indol-5-yl)cyclopentane-1,2-diol] | 2650 | 1930 | –
6.1 | Nc1ncnc2c1c(Br)cn2[C@@H]1C[C@H](c2ccc3cc(CN4CCC5(CCC5)C4)[nH]c3c2)[C@@H](O)[C@H]1O [Example 32, (1R,2S,3R,5R)-3-{4-amino-5-bromo-7H-pyrrolo[2,3-d]pyrimidin-7-yl}-5-[2-({6-azaspiro[3.4]octan-6-yl}methyl)-1H-indol-6-yl]cyclopentane-1,2-diol] | 551 | 1220 | –
6.22 | Nc1ncnc2c1ccn2[C@@H]1C[C@H](c2ccc3cc(CN4CCC5(CCC5)C4)[nH]c3c2)[C@@H](O)[C@H]1O [Example 33, (1R,2S,3R,5R)-3-{4-amino-7H-pyrrolo[2,3-d]pyrimidin-7-yl}-5-[2-({6-azaspiro[3.4]octan-6-yl}methyl)-1H-indol-6-yl]cyclopentane-1,2-diol] | 276 | 1390 | –
63.7 | Nc1ncnc2c1c(Br)cn2[C@@H]1C[C@H](c2ccc(CN3CCC4(CCC4)C3)cc2)[C@@H](O)[C@H]1O [Example 35, (1R,2S,3R,5R)-3-{4-amino-5-bromo-7H-pyrrolo[2,3-d]pyrimidin-7-yl}-5-[4-({6-azaspiro[3.4]octan-6-yl}methyl)phenyl]cyclopentane-1,2-diol] | 4560 | 4160 | –
103 | CC1(C)CCN(Cc2ccc([C@H]3C[C@@H](n4cc(Br)c5c(N)ncnc54)[C@H](O)[C@@H]3O)cc2)CC1 [Example 36, (1R,2S,3R,5R)-3-{4-amino-5-bromo-7H-pyrrolo[2,3-d]pyrimidin-7-yl}-5-{4-[(4,4-dimethylpiperidin-1-yl)methyl]phenyl}cyclopentane-1,2-diol] | 7750 | 5270 | –
